For one assay, the system named is HCV 1b-377-neo replicon cells. Kind of assay: HCV replicon assay, HCV 1b-377-neo replicon cells (1b FRET). The class given is cell-based, Hepatitis C virus genotype 1b. The settings on record: HCV 1b-377-neo replicon cells; HCV 1b genotype. In outline:
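Compounds were tested in genotype 1b subgenomic replicon cells carrying a neomycin marker, alongside a matched replicon line with an NS5A Y2065H substitution that confers resistance to a reference NS5A inhibitor.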
`COC(=O)N[C@@H](C(=O)N1CCC[C@H]1c1ncc(-c2ccc(-c3ccc(-c4cnc([C@@H]5CCCN5C(=O)[C@H](NC(=O)OC)C5CC5)[nH]4)cc3C(=O)O)cc2)[nH]1)C1CC1` [Example M115, 4,4′-bis(2-((2S)-1-((2R)-2-cyclopropyl-2-((methoxycarbonyl)amino)acetyl)-2-pyrrolidinyl)-1H-imidazol-5-yl)-2-biphenylcarboxylic acid]: the “EC50 range against HCV 1b (Table 2, Range)” value is recorded as “>A”.

Still in this assay, the particulars now being: HCV 1b-377-neo replicon cells; HCV 1b genotype; read-out: EC50 range against HCV 1b (Table 2, Range).
As a reminder, the EC50 is the midpoint of the concentration-response curve. Regarding `COC(=O)N[C@@H](C(=O)N1CCC[C@H]1c1ncc(-c2ccc(-c3ccc(-c4cnc([C@@H]5CCCN5C(=O)Cc5cc(C)no5)[nH]4)cc3)cc2)[nH]1)c1ccccc1` [Example 84-74, methyl ((1R)-2-((2)S-2-(5-(4′-(2-((2S)-1-((3-methyl-5-isoxazolyl)acetyl)-2-pyrrolidinyl)-1H-imidazol-5-yl)-4-biphenylyl)-1H-imidazol-2-yl)-1-pyrrolidinyl)-2-oxo-1-phenylethyl)carbamate], the EC50 fell in the range of 0.001 to 0.999 nM.

Still in this assay, the particulars now being: Hepatitis C virus, HCV 1b-377-neo replicon cells; HCV 1b genotype; read-out: EC50 range against HCV 1b (Table 2, Range).
With `CCN(CC)[C@@H](C(=O)N1CCC[C@H]1c1ncc(-c2ccc(-c3cc(F)c(-c4cnc([C@@H]5CCCN5C(=O)[C@@H](c5ccccc5)N(CC)CC)[nH]4)cc3F)cc2)[nH]1)c1ccccc1` [Example D54, (1R1′R)-2,2′-((2,5-difluoro-4,4′-biphenyldiyl)bis(1H-imidazole-5,2-diyl(2S)-2,1-pyrrolidinediyl))bis (N,N-diethyl-2-oxo-1-phenylethanamine)], the EC50 fell in the range of 0.001 to 0.999 nM.

In the case of `COC(=O)N[C@@H](C)CC(=O)N1CCC[C@H]1c1ncc(-c2ccc(-c3ccc(-c4cnc([C@@H]5CCCN5C(=O)C[C@H](C)NC(=O)OC)[nH]4)cc3)cc2)[nH]1` [cj-126, dimethyl (4,4′-biphenyldiylbis(1H-imidazole-5,2-diyl(2S)-2,1-pyrrolidinediyl((2S)-4-oxo-4,2-butanediyl)))biscarbamate], the concentration for a half-maximal effect (EC50) lay in the range of 0.001 to 0.999 nM.

On to `CC[C@H](NC(=O)OC)C(=O)N1[C@@H](C)CC[C@H]1c1nc(-c2ccc(-c3ccc(-c4c[nH]c([C@@H]5CC[C@H](C)N5C(=O)[C@H](CC)NC(=O)OC)n4)cc3)cc2)c[nH]1` [Example M154, dimethyl (4,4′-biphenyldiylbis(1H-imidazole-4,2-diyl((2S,5S)-5-methyl-2,1-pyrrolidinediyl)((2S)-1-oxo-1,2-butanediyl)))biscarbamate], for which the 50% effective concentration (EC50) lay within 0.001 to 0.999 nM.

Take `CCN(CC)[C@H](C)C(=O)N1CCC[C@H]1c1ncc(-c2ccc(-c3ccc(-c4cnc([C@@H]5CCCN5C(=O)[C@@H](C)N(CC)CC)[nH]4)cc3)cc2)[nH]1` [Example M9, (2R,2′R)-1,1′-(4,4′-biphenyldiylbis(1H-imidazole-5,2-diyl(2S)-2,1-pyrrolidinediyl))bis(N,N-diethyl-1-oxo-2-propanamine)]: the EC50 is 100 to 999 nM.

For the compound `O=C(Cc1cccnc1)N[C@@H](C(=O)N1CCC[C@H]1c1ncc(-c2ccc(-c3ccc(-c4cnc([C@@H]5CCCN5C(=O)[C@H](NC(=O)Cc5cccnc5)c5ccccc5)[nH]4)cc3)cc2)[nH]1)c1ccccc1` [Example 25-4, N,N′-(4,4′-biphenyldiylbis(1H-imidazole-5,2-diyl(2S)-2,1-pyrrolidinediyl((1R)-2-oxo-1-phenyl-2,1-ethanediyl)))bis(2-(3-pyridinyl)acetamide)], the half-maximal effective concentration (EC50) is 0.001 to 0.999 nM.

With `CC1(O)CCN([C@@H](C(=O)N2CCC[C@H]2c2ncc(-c3ccc(-c4ccc(-c5cnc([C@@H]6CCCN6C(=O)[C@@H](c6ccccc6)N6CCCCC6)[nH]5)cc4)cc3)[nH]2)c2ccccc2)CC1` [Example 107-2, 4-methyl-1-((1R)-2-oxo-1-phenyl-2-((2S)-2-(5-(4′-(2-((2S)-1-((2R)-2-phenyl-2-(1-piperidinyl)acetyl)-2-pyrrolidinyl)-1H-imidazol-5-yl)-4-biphenylyl)-1H-imidazol-2-yl)-1-pyrrolidinyl)ethyl)-4-piperidinol], the EC50 was in the range of 0.001 to 0.999 nM.

`COC(=O)N[C@@H](C(=O)N1CCC[C@H]1c1ncc(-c2ccc(-c3ccc(-c4cnc([C@@H]5CCCN5C(=O)CC5CCCCC5)[nH]4)cc3)cc2)[nH]1)c1ccccc1` [Example 84-75, methyl ((1R)-2-((2S)-2-(5-(4′-(2-((2S)-1-(cyclohexylacetyl)-2-pyrrolidinyl)-1H-imidazol-5-yl)-4-biphenylyl)-1H-imidazol-2-yl)-1-pyrrolidinyl)-2-oxo-1-phenylethyl)carbamate]: the EC50 was 1 to 99 nM.

Take `O=C([C@@H](c1ccccc1)N1CCCCC1)N1CCC[C@H]1c1ncc(-c2ccc(-c3ncc(-c4cnc([C@@H]5CCCN5C(=O)[C@@H](c5ccccc5)N5CCCCC5)[nH]4)cn3)cc2)[nH]1` [Example 152j-5, 5-(2-((2S)-1-((2R)-2-phenyl-2-(1-piperidinyl)acetyl)-2-pyrrolidinyl)-1H-imidazol-5-yl)-2-(4-(2-((2S)-1-((2R)-2-phenyl-2-(1-piperidinyl)acetyl)-2-pyrrolidinyl)-1H-imidazol-4-yl)phenyl)pyrimidine]: the EC50 is 0.001 to 0.999 nM.

Turning to `COC(=O)N[C@H](C(=O)N1CCC[C@H]1c1nc(-c2ccc(-c3ccc(-c4c[nH]c([C@@H]5CCCN5C(=O)[C@H](NC5CCOCC5)C(C)C)n4)cc3)cc2)c[nH]1)C(C)C` [Example F52, methyl ((1S)-2-methyl-1-(((2S)-2-(4-(4′-(2-((2S)-1-(N-(tetrahydro-2H-pyran-4-yl)-D-valyl)-2-pyrrolidinyl)-1H-imidazol-4-yl)-4-biphenylyl)-1H-imidazol-2-yl)-1-pyrrolidinyl)carbonyl)propyl)carbamate], the EC50 lay within 0.001 to 0.999 nM.

In the case of `COC(=O)N[C@@H](C(=O)N1CCC[C@H]1c1ncc(-c2ccc(-c3ccc(-c4cnc([C@@H]5CCCN5C(=O)Cc5cc(C)[nH]n5)[nH]4)cc3)cc2)[nH]1)c1ccccc1` [Example 84-19, methyl ((1R)-2-((2S)-2-(5-(4′-(2-((2S)-1-((5-methyl-1H-pyrazol-3-yl)acetyl)-2-pyrrolidinyl)-1H-imidazol-5-yl)-4-biphenylyl)-1H-imidazol-2-yl)-1-pyrrolidinyl)-2-oxo-1-phenylethyl)carbamate], the concentration for a half-maximal effect (EC50) lay in the range of 1 to 99 nM.

`COC(=O)N[C@@H](C(=O)N1CC2(CC2)C[C@H]1c1nc(-c2ccc(-c3ccc(-c4c[nH]c([C@@H]5CC6(CC6)CN5C(=O)[C@H](NC(=O)OC)c5ccccc5)n4)cc3)cc2)c[nH]1)c1ccccc1` [Example M150, dimethyl (4,4′-biphenyldiylbis(1H-imidazole-4,2-diyl(6S)-5-azaspiro[2.4]heptane-6,5-diyl((1R)-2-oxo-1-phenyl-2,1-ethanediyl)))biscarbamate]: the EC50 was in the range of 0.001 to 0.999 nM.

Take `CCN(CC)[C@@H](C(=O)N1CCC[C@H]1c1ncc(-c2ccc(-c3ccc(-c4cnc([C@@H]5CCCN5C(=O)[C@H](Cc5c[nH]c6ccccc56)NC(=O)OC)[nH]4)cc3)cc2)[nH]1)c1ccccc1` [cj-101, methyl ((1S)-2-((2S)-2-(5-(4′-(2-((2S)-1-((2R)-2-(diethylamino)-2-phenylacetyl)-2-pyrrolidinyl)-1H-imidazol-5-yl)-4-biphenylyl)-1H-imidazol-2-yl)-1-pyrrolidinyl)-1-(1H-indol-3-ylmethyl)-2-oxoethyl)carbamate]: the EC50 is 0.001 to 0.999 nM.

For the compound `C[C@H](C(=O)N1CCC[C@H]1c1ncc(-c2ccc(-c3ccc(-c4cnc([C@@H]5CCCN5C(=O)[C@@H](C)N(C)C)[nH]4)cc3)cc2)[nH]1)N(C)C` [Example M8, (2R,2′R)-1,1′-(4,4′-biphenyldiylbis(1H-imidazole-5,2-diyl(2S)-2,1-pyrrolidinediyl))bis(N,N-dimethyl-1-oxo-2-propanamine)], the EC50 was in the range of 1000 to 10000 nM.

For `CNC(=O)N[C@@H](C(=O)N1C[C@H](O)C[C@H]1c1ncc(-c2ccc(-c3ccc(-c4cnc([C@@H]5C[C@@H](O)CN5C(=O)[C@H](NC(=O)NC)c5ccccc5)[nH]4)cc3)cc2)[nH]1)c1ccccc1` [Example 24-13, N,N″-(4,4′-biphenyldiylbis(1H-imidazole-5,2-diyl((2S,4R)-4-hydroxy-2,1-pyrrolidinediyl)((1R)-2-oxo-1-phenyl-2,1-ethanediyl)))bis(3-methylurea)], the EC50 is 100 to 999 nM.

Turning to `COC(=O)N[C@H](C(=O)N1CCC[C@H]1c1ncc(-c2cnc(-c3ccc(-c4[nH]c([C@@H]5CCCN5C(=O)[C@@H](NC(=O)OC)C5CC5)nc4C(F)(F)F)cc3)nc2)[nH]1)C1CC1` [Example J49, methyl ((1S)-1-cyclopropyl-2-((2S)-2-(5-(4-(5-(2-((2S)-1-((2S)-2-cyclopropyl-2-((methoxycarbonyl)amino)acetyl)-2-pyrrolidinyl)-1H-imidazol-5-yl)-2-pyrimidinyl)phenyl)-4-(trifluoromethyl)-1H-imidazol-2-yl)-l-pyrrolidinyl)-2-oxoethyl)carbamate], the EC50 was 0.001 to 0.999 nM.

As for `COC(=O)N[C@@H](C(=O)N1CCC[C@H]1c1ncc(-c2ccc(-c3ccc(-c4cnc([C@@H]5CCCN5C(=O)C(c5cnc6ccccc6c5)N(C)C)[nH]4)cc3)cc2)[nH]1)c1ccccc1` (stereo partly drawn) [Example 84-52, methyl ((1R)-2-((2S)-2-(5-(4′-(2-((2S)-1-((dimethylamino)(3-quinolinyl)acetyl)-2-pyrrolidinyl)-1H-imidazol-5-yl)-4-biphenylyl)-1H-imidazol-2-yl)-1-pyrrolidinyl)-2-oxo-1-phenylethyl)carbamate], the EC50 lay within 0.001 to 0.999 nM.

Consider `CN(C)[C@@H](C(=O)N1CCC[C@H]1c1ncc(-c2ccc(-c3ccc(-c4cnc([C@@H]5CCCN5C(=O)N5CCCC5)[nH]4)cc3)cc2)[nH]1)c1ccccc1` [Example 94, (1R)-N,N-dimethyl-2-oxo-1-phenyl-2-((2S)-2-(5-(4′-(2-((2S)-1-(1-pyrrolidinylcarbonyl)-2-pyrrolidinyl)-1H-imidazol-5-yl)-4-biphenylyl)-1H-imidazol-2-yl)-1-pyrrolidinyl)ethanamine], for which the EC50 fell in the range of 0.001 to 0.999 nM.

Source of the values: patent US8574563B2 (Bristol-Myers Squibb Company, priority 2006, dated 2013).
